Source: patent publication US10501437B2 (Bayer Pharma Aktiengesellschaft, priority 2016, dated 2019)

Test: Storage stability and micronization of crystalline material from the cubic dosing curve crystallization
Format: physicochemical
Conditions: crystalline material obtained from ethanol/water by cubic dosing curve crystallization

For CC(C)(O)CCn1cc2cc(NC(=O)c3cccc(C(F)(F)F)n3)c(C(C)(C)O)cc2n1 [compound (I), N-[2-(3-Hydroxy-3-methylbutyl)-6-(2-hydroxypropan-2-yl)-2H-indazol-5-yl]-6-(trifluoromethyl)pyridine-2-carboxamide], the stability during storage was “good stability”.
